Entries after “also recorded” stand apart in the source; their conditions may differ. Like-named read-outs stand apart in the source and are kept apart here.

In series [1] the test system is HeLa cells. The format is cell-based. The protocol: In another experiment HeLa cells were treated with 100 uM of tamoxifen (a calcium influx stimulator), doxorubicin (a DNA damaging agent), cycloheximide (a protein synthesis inhibitor), digitonin (a mild detergent), and a buffer, and monitored every 15 minutes on a BIND™ Reader for 40 hours in a 37° C. incubator. The cytotoxic compounds each have distinct mechanisms of action that have distinct kinetic profiles in the assays of the invention. Toxins can be tested for their effect on differing types of cells and can be placed into a class or sub-class of toxins (e.g. calcium influx stimulator) based on their kinetic profiles. These assays have a higher throughput than electrical impedance testing for screening and profiling of toxic compounds.

In series [2] the test system is cardiomyocytes. The experiment in a line: Cardiomyocyte beating recorded with refined high-speed BIND Cartridge Reader. The format is cell-based. To be noted: 6, 10 and 15 minutes after addition, FIG. 17. The source says: An Ocean Optics HT2000+ spectrometer in a BIND™ Cartridge Reader was altered so that the slit that allows light into the spectrometer was widened, allowing more light to enter the enter the spectrometer. Therefore, recordings of up to 1000 Hz, i.e. up to 1000 readings/second can be obtained when the BIND™ Cartridge Reader is “parked” (i.e., the BIND™ Cartridge Reader remains in one position over, e.g., a well holding cells). The recordings are made continually in real-time. Recordings can be taken at about 2, 4, 10, 50, 80, 100, 250, 280, 300, 400, 500, 600, 700, 800, 900, 1,000 or more Hz (or any range between about 2 and about 1,000 Hz).
The refined BIND™ Cartridge Reader was used to take measurements of cardiomyocyte beating. […] By comparison, the data in Examples 1 and 2 was measured at 4 Hz. The increased sampling rate allows a much more refined look at the shape of each individual beat. Different beating “phenotypes” can be determined from well-to-well, in addition, the difference between synchronous beating across the well and asynchronous beating can be determined. […]
Amitriptyline is a tricyclic antidepressant sold under the trade name Elavil™. […] Amitriptyline was added to cardiomyocytes that were beating in culture and PWVs were constantly monitored. […]

Series [3] concerns Murine embryonic stem cell-derived cardiomyocytes. As to the kind of experiment: Beating amplitude and frequency of cardiomyocytes, PWV at 4 reads per second. The format is cell-based. The method, then: Murine embryonic stem cell-derived cardiomyocytes were added to wells of a biosensor and a BIND™ Reader recorded PWVs at the rate of 4 reads per second. One well was treated with KCl and another well was not treated. The cells beat synchronously when cultured on BIND™ optical biosensors and the frequency of the beating can be detected. […] The BIND™ Reader detects beating frequency and rate as oscillations of positive-negative PWV shifts. Kinetic PWV profiles can be used to accurately measure beating rate and frequency. Therefore, the assay provides an ultra high-throughput assay to measure off-target drug effects on cardiotoxicity and contractility.
In another experiment the cardiomyocytes were plated at 20,000 cells per well on fibronectin coated biosensor plates. The cells were incubated for 72 h at 37° C. before the experiment. The cells were monitored for 3 minutes before KCl was added to 50 mM final concentration.
In another experiment cardiomyocytes were treated for 17 hours with several different concentrations of doxorubicin (10 μM, 1 μM, 0.1 μM, 0.01 μM, and 0 μM). The beating amplitude and frequency was measured at 4 reads/second prior to doxorubicin treatment, then again after the 17 hour doxorubicin incubation.

The test system of series [4] is mES-derived cardiomyocytes (Cor.At). The experiment in a line: Doxorubicin toxicity on mES-derived cardiomyocytes, constant PWV monitoring. The format is cell-based, murine. The method, then:
mES-derived cardiomyocytes (Cor.At) were obtained from Axiogenesis/Lonza. 5,000 cells per well were plated on fibronectin-coated 384 well biosensor plates for 24 h before experiment. These cells beat in culture. Cells were treated with doxorubicin for 17 h at 37° C. with constant monitoring using the BIND™ Reader. […] There is an oscillation of PWVs that indicates the beating of the cells. The amplitude of the beating becomes stronger over time. That is, there is Y axis spread of the PWV reading grows larger over time as the cells beat stronger in culture.

Where [5] appears, read: FIG. 6-9, cell line not restated in these blocks.
[6] abbreviates: KCl-treated well vs untreated well, FIG. 11.

`CC[C@@]1(O)C(=O)OCc2c1cc1n(c2=O)Cc2cc3ccccc3nc2-1` [Camptothecin]: the “kinetic profile (PWV over time)” value in series [1] (setting [5]) was “somewhat different kinetic profile”.

As to 4-hydroxy-tamoxifen, in series [1] (setting [5]), the “kinetic profile (PWV over time)” value is given as “faster onset of toxicity than tamoxifen”.

In the case of `CC/C(=C(\c1ccccc1)c1ccc(OCCN(C)C)cc1)c1ccccc1` [tamoxifen], the “kinetic profile (PWV over time)” value in series [1] (setting [5]) is listed as “sharp downward shift in PWV at early time points”.

In the case of `CN(C)CCC=C1c2ccccc2CCc2ccccc21` [amitriptyline], the “beating pattern after compound addition” value in series [2] is listed as “change from regular, synchronous beating to irregular, non-synchronous beating”.

Take `N.N.[Cl][Pt][Cl]` [Cisplatin]: the “kinetic profile (PWV over time)” value in series [1] (setting [5]) is listed as “sudden onset, steep decline, followed by a negative PWV plateau”.

As to `O=C(c1ccc(OCCN2CCCCC2)cc1)c1c(-c2ccc(O)cc2)sc2cc(O)ccc12` [raloxifene], the “kinetic profile (PWV over time)” value in series [1] (setting [5]) is reported as “lack of cytotoxic response”.

`[K+].[K+].[O]=[Cr](=[O])([O-])[O][Cr](=[O])(=[O])[O-]` [potassium dichromate]: the “kinetic profile (PWV over time)” value in series [1] is listed as “sudden onset, steep decline, followed by a negative PWV plateau”.

Turning to `[Cl-].[K+]` [KCl], in series [3] (KCl 50 mM final concentration, added after 3 minutes of monitoring, 20,000 cells per well, FIG. 13), the “rate and frequency of the beating” value is “drastically reduced”. In series [3] (setting [6]), the “amplitude of the beating” value is recorded as “loss of amplitude of the beating” and the “frequency of the beating” value is reported as “decrease in the frequency of the beating”.

For the compound `CC[C@]1(O)C[C@@H]2CN(CCc3c([nH]c4ccccc34)[C@@](C(=O)OC)(c3cc4c(cc3OC)N(C)[C@H]3[C@@](O)(C(=O)OC)[C@H](OC(C)=O)[C@]5(CC)C=CCN6CC[C@]43[C@@H]65)C2)C1` [vinblastine], the “kinetic profile (PWV over time)” value in series [1] (setting [5]) was “rapid acute response and then a gradual negative PWV shift over the long term”.

Turning to `CO[C@@]12[C@H](COC(N)=O)C3=C(C(=O)C(C)=C(N)C3=O)N1C[C@@H]1N[C@@H]12` [mitomycin], in series [1] (setting [5]), the “kinetic profile (PWV over time)” value is listed as “sudden onset, steep decline, followed by a negative PWV plateau”.

As for `COc1cccc2c1C(=O)c1c(O)c3c(c(O)c1C2=O)C[C@@](O)(C(=O)CO)C[C@@H]3O[C@H]1C[C@H](N)[C@H](O)[C@H](C)O1` [doxorubicin], in series [1] (setting [5]), the “kinetic profile (PWV over time)” value was “sudden onset, steep decline, followed by a negative PWV plateau”. Besides, in series [3] (17 hours doxorubicin at 10 μM, 1 μM, 0.1 μM, 0.01 μM, 0 μM, FIG. 14), the “amplitude and frequency of beating” value is “disrupted by doxorubicin in a concentration-dependent manner”. In addition, the PWV readings entry in series [4] (doxorubicin 17 h at 37° C., 5,000 cells per well, FIG. 10) is given as “PWV readings become negative; also recorded: dose dependant”. Further, the “amplitude of beating over time” value in series [4] (doxorubicin 17 h at 37° C., FIG. 10A) is listed as “becomes weaker over time”.

Values taken from patent US20110237535A1, “Use of Induced Pluripotent Cells and other Cells for Screening Compound Libraries” (priority 2010, published 2011).
